Test [1] relates to Methicillin Resistant Staphylococcus aureus strain USA 200. In words: Minimum inhibitory concentration (MIC), CLSI broth micro-dilution, S. aureus. It is filed as cell-based. The settings on record: Table 6, MRSA USA 200, cation adjusted Mueller Hinton Broth + 0.002% Tween-80, 35° C., 22 hours. How it is done: In vitro antimicrobial activity of each compound was determined by measuring minimal inhibitor concentrations (MICs) using the broth micro-dilution technique as approved by the Clinical and Laboratory Standards Institute (CLSI) (Methods for Dilution Antimicrobial Susceptibility Tests for Bacteria that Grow Aerobically; Approved Standard-Eighth Edition. CLSI document M07-A8. Wayne, PA: Clinical and Laboratroy Standards; 2009). Antibacterial activity was measure against two strains of bacteria: a Methicillin Resistant Staphylococcus aureus strain USA 200, (S. aureus) and Escherichia coli ATCC 25922 (E. coli), a clinically relevant Gram-negative strain. Cells were inoculated onto plates of Trypyticase Soy Agar or Luria Agar respectively and grown at 35° C. for 20 hours. Inocula suspensions were prepared by scraping cells into 1 mL of testing media (cation adjusted Mueller Hinton Broth supplemented with 0.002% v/v Tween-80) and diluting to a final OD600nm of 0.01.
Test compounds were prepared in DMSO at a concentration of 10 mg/mL. In protocol 1, the compound stocks were diluted into testing media at a concentration of 64 µg/ml and serial 2-fold dilutions were made in the same media, in 96-well U bottom microtiter dishes, for a total of 10 compound concentrations. In protocol 2, the compound stocks were diluted into testing media at a concentration of 4 µg/mL and serial 2-fold dilutions were made in the same media, in 96-well U bottom microtiter dishes, for a total of 10 compound concentrations. In protocol 3, compound stocks were diluted into testing media at a concentration of 0.5 μg/mL, with serial 2-fold dilutions conducted as described above. In protocol 4, compound stocks were diluted into testing media at a concentration of […], with serial 2-fold dilutions conducted as described above. Inocula suspensions were added to the 2-fold serial dilutions of test compounds to a final density of GD OD600nm of 0.0005 and incubated at 35° C. for 22 hours.

Test [2] relates to Escherichia coli ATCC 25922. Description: Minimum inhibitory concentration (MIC), CLSI broth micro-dilution, E. coli. Type of test: cell-based. The settings on record: Table 6, cation adjusted Mueller Hinton Broth + 0.002% Tween-80, 35° C. The method in brief:
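Colonies grown 20 h at 35° C on Trypticase Soy agar (MRSA) or Luria agar (E. coli) were suspended in cation-adjusted Mueller Hinton broth with 0.002% Tween-80. Suspensions were added at OD600 0.0005 to 10-point twofold compound dilutions, then incubated 22 h at 35° C.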
(In broth dilution the organism is exposed to a series of concentrations in liquid medium.)

Where [3] appears, read: Staphylococcus aureus, MRSA / USA200.
The mark [4] stands for this setting: Escherichia coli, ATCC25922, 22 h.

By MIC is commonly meant the lowest concentration found to suppress growth.

Each structure is given as a SMILES string.

`Cc1nc(C#CC(C)C)ncc1C(=O)N[C@@H](CCN)C(=O)N(C)[C@@H]1C(=O)N[C@@H](C)C(=O)N[C@H](C(=O)NCC#N)Cc2ccc(OCCN)c(c2)-c2cc1ccc2OCCN` (racemic) [Compound 229, rac-(8S,11S,14S)-3,18-bis(2-aminoethoxy)-N-(cyanomethyl)-11-methyl-14-[methyl-[rac-(2S)-4-amino-2-[[4-methyl-2-(3-methylbut-l-ynyl)pyrimidine-5-carbonyl]amino]butanoyl]amino]-10,13-dioxo-9,12-diazatricyclo[13.3.1.12,6]icosa-1(18),2(20),3,5,15(19),16-hexaene-8-carboxamide]: the MIC was 0.57 µM in test [1] and 4.6 µM in test [2] (22 hours).
`Cc1nc(-c2ccc(C3CCCC3)cc2)ncc1C(=O)N[C@@H](CCN)C(=O)N(C)[C@@H]1C(=O)N[C@@H](C)C(=O)N[C@H](C(=O)NCC#N)Cc2ccc(OCCN)c(c2)-c2cc1ccc2OCCN` (racemic) [Compound 230, rac-(8S,11S,14S)-3,18-bis(2-aminoethoxy)-N-(cyanomethyl)-11-methyl-14-[methyl-[rac-(2S)-4-amino-2-[[2-(4-cyclopentylphenyl)-4-methyl-pyrimidine-5-carbonyl]amino]butanoyl]amino]-10,13-dioxo-9,12-diazatricyclo[13.3.1.12,6]icosa-1(18),2(20),3,5,15(19),16-hexaene-8-carboxamide]: the results for the MIC in test [1] (setting [3]) and in test [2] (setting [4]) were 0.012 µM and 0.066 µM, respectively.
The corresponding values for `Cc1nc(-c2ccc(C3CCOCC3)cc2)ncc1C(=O)N[C@@H](CCN)C(=O)N(C)[C@@H]1C(=O)N[C@@H](C)C(=O)N[C@H](C(=O)NCC#N)Cc2ccc(OCCN)c(c2)-c2cc1ccc2OCCN` (racemic) [Compound 231, rac-(8S,11S,14S)-3,18-bis(2-aminoethoxy)-N-(cyanomethyl)-11-methyl-14-[methyl-[rac-(2S)-4-amino-2-[[4-methyl-2-(4-tetrahydropyran-4-ylphenyl)pyrimidine-5-carbonyl]amino]butanoyl]amino]-10,13-dioxo-9,12-diazatricyclo[13.3.1.12,6]icosa-1(18),2(20),3,5,15(19),16-hexaene-8-carboxamide] are 0.35 µM and 1.4 µM.
The corresponding values for `Cc1nc(-c2cnc(-c3ccc(C(C)(C)C)cc3)nc2)ncc1C(=O)N[C@@H](CCN)C(=O)N(C)[C@@H]1C(=O)N[C@@H](C)C(=O)N[C@H](C(=O)NCC#N)Cc2ccc(OCCN)c(c2)-c2cc1ccc2OCCN` (racemic) [Compound 232, rac-(8S,11S,14S)-3,18-bis(2-aminoethoxy)-N-(cyanomethyl)-11-methyl-14-[methyl-[rac-(2S)-4-amino-2-[[2-[2-(4-tert-butylphenyl)pyrimidin-5-yl]-4-methyl-pyrimidine-5-carbonyl]amino]butanoyl]amino]-10,13-dioxo-9,12-diazatricyclo[13.3.1.12,6]icosa-1(18),2(20),3,5,15(19),16-hexaene-8-carboxamide] are 0.015 µM and 0.16 µM.
In the same order, the values of `Cc1nc(-c2ccc(C3CCCCC3)cc2)ncc1C(=O)N[C@@H](CCN)C(=O)N(C)[C@@H]1C(=O)N[C@@H](C)C(=O)N[C@H](C(=O)NCC#N)Cc2ccc(OCCN)c(c2)-c2cc1ccc2OCCN` (racemic) [Compound 233, rac-(8S,11S,14S)-3,18-bis(2-aminoethoxy)-N-(cyanomethyl)-11-methyl-14-[methyl-[rac-(2S)-4-amino-2-[[2-(4-cyclohexylphenyl)-4-methyl-pyrimidine-5-carbonyl]amino]butanoyl]amino]-10,13-dioxo-9,12-diazatricyclo[13.3.1.12,6]icosa-1(18),2(20),3,5,15(19),16-hexaene-8-carboxamide] are 0.016 µM and 0.13 µM.
`Cc1nc(-c2ccc3c(c2)CCC3(C)C)ncc1C(=O)N[C@@H](CCN)C(=O)N(C)[C@@H]1C(=O)N[C@@H](C)C(=O)N[C@H](C(=O)NCC#N)Cc2ccc(OCCN)c(c2)-c2cc1ccc2OCCN` (racemic) [Compound 234, rac-(8S,11S,14S)-3,18-bis(2-aminoethoxy)-N-(cyanomethyl)-11-methyl-14-[methyl-[rac-(2S)-4-amino-2-[[2-(1,1-dimethylindan-5-yl)-4-methyl-pyrimidine-5-carbonyl]amino]butanoyl]amino]-10,13-dioxo-9,12-diazatricyclo[13.3.1.12,6]icosa-1(18),2(20),3,5,15(19),16-hexaene-8-carboxamide]: the MIC in test [1] (setting [3]) came out at 0.0082 µM; in test [2] (setting [4]) it was 0.066 µM.
Take `CCCCc1ccc(-c2ncc(C(=O)N[C@@H](CCN)C(=O)N(C)[C@@H]3C(=O)N[C@@H](C)C(=O)N[C@H](C(=O)NCC#N)Cc4ccc(OCCN)c(c4)-c4cc3ccc4OCCN)c(C)n2)c(Cl)c1` (racemic) [Compound 235, rac-(8S,11S,14S)-3,18-bis(2-aminoethoxy)-N-(cyanomethyl)-11-methyl-14-[methyl-[rac-(2S)-4-amino-2-[[2-(4-butyl-2-chloro-phenyl)-4-methyl-pyrimidine-5-carbonyl]amino]butanoyl]amino]-10,13-dioxo-9,12-diazatricyclo[13.3.1.12,6]icosa-1(18),2(20),3,5,15(19),16-hexaene-8-carboxamide]: the MIC in test [1] (setting [3]) is 0.016 µM; in test [2] (setting [4]), 0.26 µM.
In the same order, the values of `Cc1nc(-c2ccc(C(C)(C)c3ccccc3)cc2)ncc1C(=O)N[C@@H](CCN)C(=O)N(C)[C@@H]1C(=O)N[C@@H](C)C(=O)N[C@H](C(=O)NCC#N)Cc2ccc(OCCN)c(c2)-c2cc1ccc2OCCN` (racemic) [Compound 236, rac-(8S,11S,14S)-3,18-bis(2-aminoethoxy)-N-(cyanomethyl)-11-methyl-14-[methyl-[rac-(2S)-4-amino-2-[[4-methyl-2-[4-(1-methyl-1-phenyl-ethyl)phenyl]pyrimidine-5-carbonyl]amino]butanoyl]amino]-10,13-dioxo-9,12-diazatricyclo[13.3.1.12,6]icosa-1(18),2(20),3,5,15(19),16-hexaene-8-carboxamide] are 0.016 µM and 0.13 µM.
The corresponding values for `Cc1nc(-c2cccc(C(C)(C)C)c2)ncc1C(=O)N[C@@H](CCN)C(=O)N(C)[C@@H]1C(=O)N[C@@H](C)C(=O)N[C@H](C(=O)NCC#N)Cc2ccc(OCCN)c(c2)-c2cc1ccc2OCCN` (racemic) [Compound 237, rac-(8S,11S,14S)-3,18-bis(2-aminoethoxy)-N-(cyanomethyl)-11-methyl-14-[methyl-[rac-(2S)-4-amino-2-[[2-(3-tert-butylphenyl)-4-methyl-pyrimidine-5-carbonyl]amino]butanoyl]amino]-10,13-dioxo-9,12-diazatricyclo[13.3.1.12,6]icosa-1(18),2(20),3,5,15(19),16-hexaene-8-carboxamide] are 0.0083 µM and 0.27 µM.
As to `Cc1nc(-c2ccc(C3(C)COC3)cc2)ncc1C(=O)N[C@@H](CCN)C(=O)N(C)[C@@H]1C(=O)N[C@@H](C)C(=O)N[C@H](C(=O)NCC#N)Cc2ccc(OCCN)c(c2)-c2cc1ccc2OCCN` (racemic) [Compound 238, rac-(8S,11S,14S)-3,18-bis(2-aminoethoxy)-N-(cyanomethyl)-11-methyl-14-[methyl-[rac-(2S)-4-amino-2-[[4-methyl-2-[4-(3-methyloxetan-3-yl)phenyl]pyrimidine-5-carbonyl]amino]butanoyl]amino]-10,13-dioxo-9,12-diazatricyclo[13.3.1.12,6]icosa-1(18),2(20),3,5,15(19),16-hexaene-8-carboxamide], the values for the MIC in test [1] (setting [3]) and in test [2] (setting [4]) were 0.53 µM and 2.1 µM, respectively.
As for `Cc1nc(-c2ccc(C3C4CC5CC(C4)CC3C5)cc2)ncc1C(=O)N[C@@H](CCN)C(=O)N(C)[C@@H]1C(=O)N[C@@H](C)C(=O)N[C@H](C(=O)NCC#N)Cc2ccc(OCCN)c(c2)-c2cc1ccc2OCCN` (mixture of isomers) [Compound 239, rac-(8S,11S,14S)-3,18-bis(2-aminoethoxy)-N-(cyanomethyl)-11-methyl-14-[methyl-[rac-(2S)-2-[[2-[4-(2-adamantyl)phenyl]-4-methyl-pyrimidine-5-carbonyl]amino]-4-amino-butanoyl]amino]-10,13-dioxo-9,12-diazatricyclo[13.3.1.12,6]icosa-1(18),2(20),3,5,15(19),16-hexaene-8-carboxamide], the MIC came to 0.015 µM in test [1] (setting [3]) and 0.12 µM in test [2] (setting [4]).

For the origin of these results see patent US20260274892A1, “MACROCYCLIC BROAD SPECTRUM ANTIBIOTICS” (RQx Pharmaceuticals, Inc., priority 2017, published 2026).
